Data: the RepoRT retention time repository (doi:10.1021/acs.analchem.1c00972)

Tests used:
[1] = RP, Waters ACQUITY UPLC BEH C18, 100 × 1 mm, 1.7 µm, 50 °C, 0.3 mL/min, estimated dead time 0.17 min; A: water + 0.1% formic acid + 20 mM ammonium formate; B: methanol + 0.1% formic acid + 20 mM ammonium formate; gradient (min/%B) 0/0 15/100 21/100 22/0 30/0; conditions: stereoisomer not certain
[2] = RP, Waters ACQUITY UPLC BEH C18, 100 × 1 mm, 1.7 µm, 50 °C, 0.3 mL/min, estimated dead time 0.17 min; A: water + 10 mM ammonium bicarbonate; B: 10% water + 90% methanol + 10 mM ammonium bicarbonate; gradient (min/%B) 0/0 15/100 21/100 22/0 30/0; conditions: stereoisomer not certain

SMILES	LC retention time [1] [min]	LC retention time [2] [min]
N#Cc1c(Cl)c(Cl)c(O)c(C(N)=O)c1Cl	10	8.11
CON=C(C(=O)O)c1ccccc1CON=C(C)c1cccc(C(F)(F)F)c1	15.6	14.5
Cn1c(=O)nc(NC(C)(C)C)[nH]c1=O	8.56	6.95
CCc1cccc(C)c1N(C(=O)CS(=O)(=O)O)C(C)C(=O)O (centres undefined)	11	8.62
CCCN(CCOc1c(Cl)cc(Cl)cc1Cl)C(N)=O	15.9	16.2
CN1COCN(Cc2cnc(Cl)s2)C1=N	6.25	6.91
CN1COCN(Cc2cnc(Cl)s2)C1=O	9.42	9.5
CN1Cc2c(ccc3c2OCO3)C2C(O)Cc3cc4c(cc3C21)OCO4 (single isomer, unassigned; (+)) [(+)-Chelidonine]	9.34	15.3
C=C1C(=O)OC2C=C(C)CCC=C(C)CCC12 (single isomer, unassigned; (+)) [(+)-Costunolide]	15	15.3
COc1ccc2c(c1O)-c1c(OC)c(OC)cc3c1C(C2)N(C)CC3 (single isomer, unassigned; (+)) [(+)-Isocorydin]	8.65	13.6
COc1cc2c3c(c1OC)-c1ccccc1CC3N(C)CC2 (single isomer, unassigned; (-)) [(-)-Nuciferine]	10.5	15.6
CN1C2CC(OC(=O)C(CO)c3ccccc3)CC1C1OC12 (single isomer, unassigned; (-)) [(-)-Scopolamine]	7.05	11.2
O=C1CC2OCC=C3CN4CCC56c7ccccc7N1C5C2C3CC46 (single isomer, unassigned; (-)) [(-)-Strychnine]	7.73	12.3
O=C1NCCN1Cc1ccc(Cl)nc1 [Imidacloprid-urea]		8.68
CC(=O)N(CC(O)CO)c1c(I)c(C(=O)NCC(O)CO)c(I)c(C(=O)NCC(O)CO)c1I (centres undefined) [Iohexol]		5.51
CSc1nc(N)nc(NC(C)(C)C)n1 [Irgarol-Metabolit 1 (Terbutryn-desethyl)]		13.4
CSc1nc(NC2CC2)nc(NC(C)(C)C)n1 [Irgarol]		15.4
C[N+](C)(C)C[C@H](O)CC(=O)[O-] [L-Carnitin]		9.28
O=c1[nH]c2c(c(=O)n1C1CCCCC1)CCC2 [Lenacil]		13.1
CCN(CC)CC(=O)Nc1c(C)cccc1C [Lidocaine]		14.9
CCCCCC=CCC=CCCCCCCCC(=O)O [Linoleic acid]		17.6
CC#Cc1cc(C)nc(Nc2ccccc2)n1 [Mepanipyrim]		15

SMILES	LC retention time [1] [min]	LC retention time [2] [min]
CCC1(c2cccc(O)c2)CCCCN(C)C1 (centres undefined) [Meptazinole]		14.4
C#CC1(O)CCC2C3CCc4cc(OC)ccc4C3CCC21C (centres undefined) [Mestranol]		14.3
Cc1nnc(-c2ccccc2)c(=O)n1N [Metamitron]		9
Cc1cccc(C)c1N(Cn1cccn1)C(=O)CCl [Metazachlor]		13.3
CNC(=O)Oc1cc(C)c(SC)c(C)c1 [Methiocarb]		14.3
COC(=O)c1ccccc1S(N)(=O)=O [Methyl 2-(aminosulfonyl)benzoate]		8.1
CN(CCO)CCO [Methyl diethanolamine]		2.65
Cn1sc(Cl)cc1=O [Methylchloroisothiazolinone]		6.48
CCN(CC)CCNC(=O)c1cc(Cl)c(N)cc1OC [Metoclopramide]		12.3
CSc1nnc(C(C)(C)C)c(=O)[nH]1 [Metribuzin-desamino]		11.6
CNC(=O)C=C(C)OP(=O)(OC)OC [Monocrotophos (Crisodin)]		8.11
CN(C)C(=O)Nc1ccc(Cl)cc1 [Monuron]		11.3
O=C(O)CC[C@@H](C(=O)O)N(CC(=O)O)CC(=O)O [N,N-Bis(carboxymethyl)-L-glutamic acid]		13
CCCCCCCCCCCC[N+](C)(C)[O-] [N,N-Dimethyldodecylamine N-oxide]		16.8
CC(=O)Nc1c(C)n(C)n(-c2ccccc2)c1=O [N-Acetyl-4-aminoantipyrine]		7.94
CCNc1ccccc1 [N-Ethylaniline]		12.2
Cc1c(NC=O)c(=O)n(-c2ccccc2)n1C [N-Formyl-4-aminoantipyrine]		7.81
CC(=O)N(C)c1ccccc1 [N-Methylacetanilide]		11.2
CCN(CC)C(=O)C(C)Oc1cccc2ccccc12 (centres undefined) [Napropamide]		15.1
CNC(=O)CSP(=O)(OC)OC [Omethoate]		6.12
NC(=O)N1c2ccccc2CC(=O)c2ccccc21 [Oxcarbazepine]		11.7
CCC(CC)Nc1c([N+](=O)[O-])cc(C)c(C)c1[N+](=O)[O-] [Pendimethalin]		17.5

SMILES	LC retention time [1] [min]	LC retention time [2] [min]
CCOCCN(C(=O)CCl)C(=C(C)C)c1ccccc1 [Pethoxamid]		15.3
CCOc1ccc(NC(C)=O)cc1 [Phenacetin]		9.9
O=C1CC=Cc2ncc3ccccc3c21 [Phenanthridinon]		13.2
COC(=O)Nc1cccc(OC(=O)Nc2cccc(C)c2)c1 [Phenmedipham]		13.6
CCCCOCCOCCOCc1cc2c(cc1CCC)OCO2 [Piperonyl butoxide]		15.3
CNC(=O)Oc1cc(C)cc(C(C)C)c1 [Promecarb]		15
CC(C)N(C(=O)C(=O)O)c1ccccc1 [Propachlor oxanilic acid (OA)]		11.3
CC(C)N(C(=O)CCl)c1ccccc1 [Propachlor]		13.3
CNC(=O)Oc1ccccc1OC(C)C [Propoxur (baygon)]		11.9
C#CC(C)(C)NC(=O)c1cc(Cl)cc(Cl)c1 [Propyzamide]		14.6
CCCN(CCC)C(=O)SCc1ccccc1 [Prosulfocarb]		16.9
CC(C)(C)c1ccc(CSc2cnn(C(C)(C)C)c(=O)c2Cl)cc1 [Pyridaben]		18.3
Cc1cc(C)nc(Nc2ccccc2)n1 [Pyrimethanil]		14.2
CC(COc1ccc(Oc2ccccc2)cc1)Oc1ccccn1 (centres undefined) [Pyriproxyfen]		17.4
On1ccccc1=S [Pyrithione]		9.52
CNC(=C[N+](=O)[O-])NCCSCc1ccc(CN(C)C)o1 [Ranitidine]		10.2
Oc1ccc(C=Cc2cc(O)cc(O)c2)cc1 [Resveratrol]		15.4
CC(N)C12CC3CC(CC(C3)C1)C2 (centres undefined) [Rimantadin]		13.9
CCNc1nc(NCC)nc(OC)n1 [Simeton]		11.6
CC(C)NCC(O)c1ccc(NS(C)(=O)=O)cc1 (centres undefined) [Sotalol]		7.74
CC(=O)SC1CC2=CC(=O)CCC2(C)C2CCC3(C)C(CCC34CCC(=O)O4)C12 (centres undefined) [Spironolactone]		14.2
Cc1cc(C)nc(NS(=O)(=O)c2ccc(N)cc2)n1 [Sulfamethazine]		7.4

SMILES	LC retention time [1] [min]	LC retention time [2] [min]
Cc1nnc(NS(=O)(=O)c2ccc(N)cc2)s1 [Sulfamethizol]		5.94
Nc1ccc(S(=O)(=O)Nc2ccccn2)cc1 [Sulfapyridine]		6.64
C=CC1C(OC2OC(CO)C(O)C(O)C2O)OC=C2C(=O)OCCC21 (centres undefined) [Sweroside]		8.69
N#CSCSc1nc2ccccc2s1 [TCMTB]		14.1
CC(C)N(Cc1ccccc1)C(=O)C(C)(C)C [Tebutam]		14.3
CC(Cn1cnc2c(N)ncnc21)OCP(=O)(O)O (centres undefined) [Tenofovir]		2.02
CCNc1nc(NC(C)(C)C)nc(OC)n1 [Terbumeton]		14.3
CCNc1nc(Cl)nc(NC(C)(C)C)n1 [Terbuthylazine]		14.4
CC12CCC(=O)C=C1CCC1C2CCC2(C)C(O)CCC12 (centres undefined) [Testosterone]		14.6
FC(F)C(F)(F)OCC(Cn1cncn1)c1ccc(Cl)cc1Cl (centres undefined) [Tetraconazole]		15.3
Cn1c(=O)c2[nH]cnc2n(C)c1=O [Theophyllin]		6.11
CC(=O)c1cc2c(cc1C)C(C)(C)C(C)CC2(C)C (centres undefined) [Tonalide]		18.2
Cc1c(C(=O)c2c[nH]n(C)c2=O)ccc(S(C)(=O)=O)c1C1=NOCC1 [Topramezone]		7.42
COc1cccc(C2(O)CCCCC2CN(C)C)c1 (centres undefined) [Tramadol]		14
CS(=O)(=O)OCC(O)C(O)COS(C)(=O)=O (centres undefined) [Treosulfan]		3.77
CCCCOCCOCCOCCO [Triethylene Glycol Monobutyl Ether]		11.5
O=P(OCCCCl)(OCCCCl)OCCCCl [Tris(3-chloropropyl) phosphate]		14.6
CCC(C)(NC(=O)c1cc(Cl)c(C)c(Cl)c1)C(=O)CCl (centres undefined) [Zoxamide]		16
Cc1ccccc1N [o-Toluidine]		9.21
Cc1ccccc1N=C=O [o-Tolyl isocyanate]		8.18
